Article PMC4059234, “Edc3 Function in Yeast and Mammals Is Modulated by Interaction with NAD-Related Compounds” (G3: Genes|Genomes|Genetics, 2014)

How the values were obtained:
hEdc3 = target: T1, hEdc3 (Homo sapiens, UniProt Q96F86); test: isothermal titration calorimetry ([…]°, pH […]); assay type: binding
T1 construct: gene EDC3; full-length hEdc3
T1 sequence (Q96F86 1-508): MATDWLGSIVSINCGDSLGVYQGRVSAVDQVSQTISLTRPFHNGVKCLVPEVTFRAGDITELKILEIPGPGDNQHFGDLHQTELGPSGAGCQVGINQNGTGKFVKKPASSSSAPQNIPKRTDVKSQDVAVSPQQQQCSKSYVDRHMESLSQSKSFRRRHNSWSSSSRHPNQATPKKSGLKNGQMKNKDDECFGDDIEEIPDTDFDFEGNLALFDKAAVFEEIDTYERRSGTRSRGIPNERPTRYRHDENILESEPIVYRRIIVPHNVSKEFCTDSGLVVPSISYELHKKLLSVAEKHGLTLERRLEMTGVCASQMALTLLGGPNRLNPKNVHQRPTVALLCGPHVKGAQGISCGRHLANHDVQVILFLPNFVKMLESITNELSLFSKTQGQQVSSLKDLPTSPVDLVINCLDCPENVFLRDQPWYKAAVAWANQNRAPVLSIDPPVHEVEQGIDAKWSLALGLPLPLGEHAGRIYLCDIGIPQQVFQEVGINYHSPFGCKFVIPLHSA

yEdc3 = target: T2, yEdc3 (Saccharomyces cerevisiae, UniProt P39998); test: thin-layer chromatography of […]-NAD incubated with recombinant protein; assay type: biochemical
T2 construct: gene EDC3; full-length recombinant yeast Edc3
T2 sequence (P39998 1-551): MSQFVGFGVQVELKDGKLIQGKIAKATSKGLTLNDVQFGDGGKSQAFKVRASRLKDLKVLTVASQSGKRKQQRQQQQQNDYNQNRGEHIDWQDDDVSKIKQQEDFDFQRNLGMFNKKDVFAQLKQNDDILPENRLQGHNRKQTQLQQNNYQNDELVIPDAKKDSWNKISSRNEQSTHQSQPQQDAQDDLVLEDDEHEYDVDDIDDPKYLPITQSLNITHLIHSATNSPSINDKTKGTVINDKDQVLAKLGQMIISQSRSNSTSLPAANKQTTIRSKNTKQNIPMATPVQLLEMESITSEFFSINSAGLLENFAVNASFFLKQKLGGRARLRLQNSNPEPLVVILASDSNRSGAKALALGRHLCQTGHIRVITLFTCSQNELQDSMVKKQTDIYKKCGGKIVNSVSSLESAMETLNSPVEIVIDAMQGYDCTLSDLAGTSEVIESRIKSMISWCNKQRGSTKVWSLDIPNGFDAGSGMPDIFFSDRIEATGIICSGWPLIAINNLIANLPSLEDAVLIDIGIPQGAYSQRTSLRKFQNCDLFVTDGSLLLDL

Kd (hEdc3) [µM] | Structure (SMILES) | thin-layer chromatography of 32P-NAD incubated with recombinant protein (yEdc3)
163 ± 27.4 | NC(=O)C1=CN([C@@H]2O[C@H](COP(=O)(O)OP(=O)(O)OC[C@H]3O[C@@H](n4cnc5c(N)ncnc54)[C@H](O)[C@@H]3O)[C@@H](O)[C@H]2O)C=CC1 [NADH] | 
 | NC(=O)c1ccc[n+]([C@@H]2O[C@H](COP(=O)([O-])OP(=O)(O)OC[C@H]3O[C@@H](n4cnc5c(N)ncnc54)[C@H](O)[C@@H]3O)[C@@H](O)[C@H]2O)c1 [NAD] | Incubation of yeast WT Edc3 with radiolabeled NAD gave rise to two slower migrating species
